Activity calls are given as the source filed them. The rule behind the calls is not given here.
Experiments:
[1] = test system: Huh-7; test: Antitumor activity against human Huh-7 cells xenografted in BALB/c mouse assessed as tumor growth inhibition at 30 mg/kg, ip qd measured after 14 days; format: functional; conditions: Huh-7, 336 h, time 14 day, read-out: TGI
[2] = test system: Huh-7; test: Antitumor activity against human Huh-7 cells xenografted in BALB/c mouse assessed as reduction in tumor weight at 15 to 30 mg/kg, ip qd; format: functional, organism-based; conditions: dose 15-30 mg/kg, time 14.0 day, TDE = time-dependent effect
[3] = test system: Huh-7; test: Antimigratory activity against human Huh-7 cells assessed as down-regulation of N-cadherin expression at 0.55 to 2.2 uM incubated 24 hrs by Western blotting analysis; format: functional, cell-based; conditions: dose 0.55-2.2 µM
[4] = test system: Huh-7; test: Antitumor activity against human Huh-7 cells xenografted in BALB/c mouse assessed as reduction in tumor volume at 15 to 30 mg/kg, ip qd; format: functional, organism-based; conditions: dose 15-30 mg/kg, time 14.0 day, TDE = time-dependent effect
[5] = test system: Huh-7; test: Antiproliferative activity against human Huh-7 cells assessed as inhibition of cell growth upto 2 uM by MTT assay; format: functional, cell-based; conditions: time 72.0 hrs, TDE = time-dependent effect
[6] = test system: SK-HEP1; test: Inhibition of cell migration in human SK-HEP1 cells incubated for 24 hrs by scratch wound healing assay; format: functional, cell-based; conditions: dose 1.25-5 µM

## CC(=O)Oc1ccccc1/C=C/c1nccc2ccccc12
[1]
  inhibition in vivo at 30 mg/kg: 41.4%
[2]
  Activity: Tde
[3]
  Activity: Active
[4]
  Activity: Tde
[5]
  Activity: Tde
[6]
  inhibition: Dose-Dependent Effect

From ChEMBL document CHEMBL5370544, “Design, synthesis, and biological evaluation of 1-styrenyl isoquinoline derivatives for anti-hepatocellular carcinoma activity and effect on mitochondria” (Eur J Med Chem, 2023)
